Four molecules from patent US20170190671A1, “BIS(ARYL)CATECHOL DERIVATIVES AS HERBICIDES” (E I DU PONT DE NEMOURS AND COMPANY, priority 2014, published 2017) can be followed below.

`FC(F)c1cnc(Oc2c(Br)cccc2Oc2ncc(Cl)cn2)s1` [Compound 10, 2-[3-bromo-2-[[5-(difluoromethyl)-2-thiazolyl]oxy]phenoxy]-5-chloropyrimidine] displayed a melting point of 113 to 116 °C.

For `Fc1ccc(F)c(Oc2ncc(Br)cn2)c1Oc1ncc(Br)cn1` [Compound 31], the melting point was in the range of 166 to 170 °C.

Take `N#Cc1cccc(Oc2ncc(Cl)cn2)c1Oc1cccc(Cl)c1` [Compound 37]: the melting point lay in the range of 122 to 126 °C.

`N#Cc1cccc(Oc2ncc(Cl)cn2)c1Oc1ccccc1Cl` [Compound 40] had a melting point of 120 to 123 °C.

A word on the melting point: it is the temperature of the solid-liquid transition.
